Experimental data from publication PMC6112376, “Comprehensive Analyses and Prioritization of Tox21 10K Chemicals Affecting Mitochondrial Function by in-Depth Mechanistic Studies” (Environmental Health Perspectives, 2018).
Where two headings read alike, the source gives them in different places.

Tests used:
hNSC = experiment: MMP assay in human neural stem cells (hNSC); assay type: cell-based; details: Homo sapiens, Neural stem cell, 1 h, read-out: hNSC IC50 (MMP)
HepG2 cells [1] = experiment: ROS-Glo hydrogen peroxide (ROS) assay; assay type: cell-based, human
HepG2 cells [2] = experiment: Intracellular ATP content (cell viability) assay; assay type: cell-based, human; details: Homo sapiens, HepG2, 40 h
[3] = test system: Nrf2/ARE (ARE-bla HepG2 cells); experiment: ARE β-lactamase reporter gene assay; assay type: cell-based, human; details: Homo sapiens, HepG2; 16 h incubation; mean±SD of three experiments; read-out: ARE (HepG2) EC50
[4] = test system: isolated rat liver mitochondria; experiment: Oxygen consumption, Clark-type oxygen electrode; assay type: biochemical
[5] = test system: mitochondrial respiratory chain complex I; assay type: biochemical, rat
[6] = biological target: T1, mitochondrial respiratory chain complex II (Rattus norvegicus, UniProt P21913+Q641Z9+Q6PCT8+Q920L2); experiment: Respiratory chain complex II activity; assay type: biochemical; details: tested up to 100μM
T1 construct: Submitochondrial particles were prepared by subjecting the intact rat mitochondria, isolated as described above, to three successive freeze–thaw cycles; from tissue; host or cells: rat liver mitochondria (submitochondrial particles)

[7] = test system: mitochondrial respiratory chain complex III; assay type: biochemical, rat
[8] = test system: mitochondrial respiratory chain complex IV; assay type: biochemical, rat
[9] = test system: mitochondrial respiratory chain complex V; assay type: biochemical, rat
[10] = test system: HeLa cells expressing YFP-Parkin; experiment: Parkin translocation assay; assay type: cell-based, human
rat primary hepatocytes [11] = test system: rat primary hepatocytes
HepG2 cells [12] = details: cited from earlier work
[13] = test system: Caenorhabditis elegans (Bristol N2); details: Bristol N2 (wild type), Caenorhabditis elegans, in vivo
HepG2 cells [14] = experiment: cells; details: Homo sapiens; for IC50: HepG2, 1 h
rat primary hepatocytes [15] = experiment: MMP assay in rat primary hepatocytes; details: Rattus norvegicus, Hepatocyte
[16] = test system: Caenorhabditis elegans (Bristol N2); experiment: C. elegans larval development and growth assay; details: Caenorhabditis elegans, read-out: LEC EXT: lowest effect concentration for extinction, a measure of nematode size

T1 sequence (Q920L2 35-656): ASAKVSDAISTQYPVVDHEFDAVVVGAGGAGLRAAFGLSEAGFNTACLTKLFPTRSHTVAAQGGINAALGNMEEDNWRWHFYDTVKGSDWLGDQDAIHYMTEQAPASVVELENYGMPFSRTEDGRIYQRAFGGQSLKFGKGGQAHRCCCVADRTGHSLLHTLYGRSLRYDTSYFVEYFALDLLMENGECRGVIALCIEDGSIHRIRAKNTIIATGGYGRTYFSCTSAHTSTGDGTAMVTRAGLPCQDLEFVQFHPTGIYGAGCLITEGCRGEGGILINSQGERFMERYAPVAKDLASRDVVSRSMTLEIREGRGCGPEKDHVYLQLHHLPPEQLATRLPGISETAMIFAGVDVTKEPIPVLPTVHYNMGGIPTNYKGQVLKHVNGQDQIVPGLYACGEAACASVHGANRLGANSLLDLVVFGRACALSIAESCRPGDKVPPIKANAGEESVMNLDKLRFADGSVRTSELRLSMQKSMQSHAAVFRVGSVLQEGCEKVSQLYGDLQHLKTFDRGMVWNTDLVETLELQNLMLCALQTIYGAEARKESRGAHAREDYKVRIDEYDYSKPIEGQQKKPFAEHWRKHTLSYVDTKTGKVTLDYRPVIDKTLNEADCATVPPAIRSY
T1 sequence (P21913 31-282): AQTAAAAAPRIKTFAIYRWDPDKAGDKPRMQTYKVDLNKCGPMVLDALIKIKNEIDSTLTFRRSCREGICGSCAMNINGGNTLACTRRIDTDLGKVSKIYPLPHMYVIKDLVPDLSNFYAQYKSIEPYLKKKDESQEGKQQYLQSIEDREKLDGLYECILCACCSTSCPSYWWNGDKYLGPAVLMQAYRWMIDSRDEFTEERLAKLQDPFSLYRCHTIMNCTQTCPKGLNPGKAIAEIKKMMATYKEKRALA
T1 sequence (Q641Z9 1-169): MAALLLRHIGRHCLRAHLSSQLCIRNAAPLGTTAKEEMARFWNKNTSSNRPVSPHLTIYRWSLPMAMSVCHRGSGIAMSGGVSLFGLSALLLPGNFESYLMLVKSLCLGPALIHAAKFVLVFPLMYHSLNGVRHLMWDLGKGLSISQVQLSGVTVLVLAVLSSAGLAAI
T1 sequence (Q6PCT8 57-159): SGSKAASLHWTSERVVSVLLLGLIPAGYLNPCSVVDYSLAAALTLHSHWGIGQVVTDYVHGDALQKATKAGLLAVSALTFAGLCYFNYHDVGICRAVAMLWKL

With `C=C(c1ccc(C(=O)O)cc1)c1cc2c(cc1C)C(C)(C)CCC2(C)C` [Bexarotene, reference compound] the IC50 (hNSC) was 22.3 µM, the “ROS (HepG2) EC50” value (HepG2 cells [1]) was “Inactive” and the IC50 (HepG2 cells [2]; read-out: ATP (HepG2, galactose) IC50) was 63.2 µM. For the same compound, the IC50 (HepG2 cells [2]; read-out: ATP (HepG2, glucose) IC50) was 63.2 µM, the EC50 [3] was 11.5 ± 0.75 µM and the “Potential Mechanism” value [4] was “Uncoupler + inhibitor”. The “I-ADP, % of control (O2 consumption rate)” value ([4]; 0.8 µM) was 92 (45.5) % of control, the “I-sub, % of control (O2 consumption rate)” value ([4]; 0.8 µM) was 108 (17.4) % of control and the “II-ADP, % of control (O2 consumption rate)” value (shortened to “II-ADP, % of control”) ([4]; 0.8 µM) was 84 (65.0) % of control. For the same compound, the “II-sub, % of control (O2 consumption rate)” value (shortened to “II-sub, % of control”) ([4]; 0.8 µM) was 93 (28.5) % of control, the “I-ADP, % of control (O2 consumption rate)” value ([4]; 4 µM) was 86 (42.6) % of control and the “II-ADP, % of control” value ([4]; 4 µM) was 81 (62.5) % of control. For the same compound, the “II-sub, % of control” value ([4]; 4 µM) was 97 (29.8) % of control, the “I-ADP, % of control (O2 consumption rate)” value ([4]; 20 µM) was 61 (29.8) % of control and the “I-sub, % of control (O2 consumption rate)” value ([4]; 20 µM) was 155 (25.0) % of control. For the same compound, the “II-ADP, % of control” value ([4]; 20 µM) was 39 (30.1) % of control, the “II-sub, % of control” value ([4]; 20 µM) was 107 (32.7) % of control and the “I-ADP, % of control (O2 consumption rate)” value ([4]; 100 µM) was 5 (2.8) % of control. For the same compound, the “I-sub, % of control (O2 consumption rate)” value ([4]; 100 µM) was 36 (4.9) % of control, the “II-ADP, % of control” value ([4]; 100 µM) was 6 (3.8) % of control and the “II-sub, % of control” value ([4]; 100 µM) was 24 (5.1) % of control. For the same compound, the “Complex I % inhibition (activity call)” value [5] was “Inactive”, the “Complex II % inhibition (activity call)” value [6] was “Inactive” and the “Complex III % inhibition (activity call)” value [7] was “Inactive”. The “Complex IV % inhibition (activity call)” value [8] was “Inactive”, the “Complex V % inhibition (activity call)” value [9] was “Inactive” and the Parkin recruitment [10] was “Inactive”. The “MMP assays efficacy (%) Rat Hepatocytes” value (rat primary hepatocytes [11]) was -112±7%, the “Rat hepatocytes (efficacy) (MMP)” value (rat primary hepatocytes [11]) was 39.9±5.09 ( −93.8±8.55 ) % and the “MMP assays efficacy (%) qHTS-HepG2” value (HepG2 cells [12]) was -124±6%. For the same compound, the IC50 (HepG2 cells [12]; read-out: MMP assays IC50 (µM) qHTS-HepG2) was 16.5 ± 3.95 µM, the “LEC (lowest effect concentration), larval growth assay” value [13] was ≤ 10 µM and the IC50 (HepG2 cells [14]; read-out: HepG2 IC50 Galactose (MMP)) was 50.2 µM. It also gave an IC50 (HepG2 cells [14]; read-out: HepG2 IC50 Glucose (MMP)) of 50 µM, an Emax (HepG2 cells [14]; HepG2, read-out: MMP assays efficacy (%) HepG2) of 106% and an IC50 (rat primary hepatocytes [15]; 1 h, read-out: Rat hepatocytes IC50 (MMP)) of 39.9 µM. The IC50 (rat primary hepatocytes [15]; read-out: MMP assays IC50 (µM) Rat Hepatocytes) was 9.08 ± 1.16 µM and the minimal effective concentration [16] was 10 µM.
